Several values for one entry are separate records, joined by “and”; a condition that tells them apart may be missing. Identical values can stand only once.
System: DNBS induced distal colitis in Wistar rats
Assay: DNBS (2,4 dinitrobenzenesulfonic acid) induced distal colitis in Wistar rats as a model for inflammatory bowel disease
Assay type: in vivo, Wistar derived female rats
Conditions: for I: Table 3; for I / Colon weight per 100 g B.W.: ribavirin 100 mg/kg × 7 or sulfasalazine 300 mg/kg × 7 p.o.; for Colon weight per 100 g B.W.: sacrifice 24 hours after final dosing
Protocol: Wistar derived female rats were provided by MDS Pharma Services Taiwan Ltd. and housed in APEC^R cages. All animals were maintained in a controlled temperature (22° C.-24° C.) and humidity (60-80%) environment with 12 hours light dark cycles for at least one week in the laboratory prior to use. Free access to standard lab chow (LabDiet, Rodent Diet, PMI Nutrition International, USA) and tap water was granted. All aspects of the work including housing, experimentation and disposal of animals were performed in general accordance with the International Guiding Principles for Biomedical Research Involving Animals (CIOMSI Publication No. ISBN 9290360194, 1985).
[…] (TCI, Japan), absolute ethanol (Merck, Germany), sodium chloride (Wako, Japan), sulfasalazine (Sigma, USA) and Tween 80 (Wako, Japan).
Groups of 3 Wistar derived female rats weighing 180±20 grams and fasted for 24 hours were used. Distal colitis was induced by intra-colonic instillation of 2,4-ninitrobenzene sulfonic acid (DNBS; 30 mg in 0.5 mL ethanol 30%), which was followed by injection of air (2 mL) through a cannula to ensure that the solution remained in the colon. […] Two control groups were similarly treated with vehicle alone while challenged with either DNBS (vehicle-control) or 0.9% NaCl solution (blank-control). The animals were sacrificed 24 hours after the final dosing of test compound and each colon was removed and weighed. During the experiment, the presence of diarrhea was recorded daily. Furthermore, when the abdominal cavity was opened, adhesions between the colon and other organs were first noted; presence of colonic ulceration was evaluated after removal and weighing of each colon. The colon-to-body weight (BW) ratio was then calculated for each animal according to the formula: Colon [(g)/BW(g)]×100%. The “Net” increase in the ratio of vehicle-control+DNBS group relative to vehicle-control group was used as a base for comparison with test substance treated groups and expressed as percent decrease. A 30% or more (≧30%) reduction in colon-to-body weight ratio, relative to the vehicle-treated control group, is considered significant.

Compound | I (group Avg of 3 rats) | I (individual animals (N 1-3)) | Colon weight per 100 g B.W. (individual animals (N 1-3)) | effectiveness in this IBD model (ribavirin 100 mg/kg p.o., 24 and 2 hours before DNBS and then daily for 5 days) | Colon weight per 100 g B.W. (group Avg of 3 rats)
NC(=O)c1ncn([C@@H]2O[C@H](CO)[C@@H](O)[C@H]2O)n1 [Ribavirin, 1-β-D-ribofuranosyl-1H-1,2,4-triazole-3-carboxamide] | 0.733 | 0.780 and 0.619 and 0.800 | 0.96 and 1.24 | effective | 
O=C(O)c1cc(/N=N/c2ccc(S(=O)(=O)Nc3ccccn3)cc2)ccc1O [Sulfasalazine, sulfasalazine] | 0.625 | 0.631 and 0.548 and 0.697 | 1.01 and 0.85 and 1.08 |  | 0.98
